# In patent publication US12042499B2, “Administration of aurora kinase inhibitor and chemotherapeutic agents” (Millennium Pharmaceuticals, Inc., priority 2015, dated 2024):
# Experiments:
# Assay type in all cases: in vivo, female Athymic NCr nu/nu mice
# [1] = test system: NCI-H82 small cell lung tumor; experiment: NCI-H82 xenograft model study 1: alisertib and carboplatin
# Experimental: NCI-H82 1: […] Those animals selected with tumors in the proper volume range were randomized into 9 treatment and control groups (n=10/group) so that the median tumor volumes on the first day of treatment were as close as possible (206-219 mm^3). […] The suspension was diluted to 4 mg/mL with 2% sodium bicarbonate (NaHCO3) in WFI. The final composition of the alisertib vehicle was 10% HPBCD/1% NaHCO3 in WFI. The 4 mg/mL solution was diluted to 2 mg/mL with complete vehicle for the lower dose. The alisertib dosing formulations were stored in brown bottles at room temperature during the dosing period. […] A 10 mg/mL stock solution of carboplatin (Hospira, Inc.) was diluted each day of treatment with saline. […] Tumors were measured twice weekly using vernier calipers. […] Tumor size and body weight were measured approximately twice a week for the duration of the study. […] Tumor growth continued to be monitored after the dosing period in some studies. […] For each animal, the log tumor volume at the day of treatment initiation is subtracted from the log tumor volume on the subsequent days. This difference vs. time is used to calculate an area under the curve (AUC) for each animal using the trapezoid rule. In instances when an animal in a treatment group is removed early from the study, the last observed tumor value is carried forward through all subsequent time points. The synergy score for the combination of agents A and B is defined as 100*(mean(AUCAB)-mean(AUCA)-mean(AUCB)+mean(AUCctl))/mean(AUCctl): where AUCAB, AUCA, AUCB, and AUCctl are the AUC values for animals in the combination group, the A group, the B group, and the control group, respectively. The standard error of the synergy score is computed based on the variation in the AUC values among the animals. […] If the P-value is above 0.05, then the combination is considered to be additive. If the P-value is below 0.05, and the synergy score is less than zero, then the combination is considered to be synergistic. If the P-value is below 0.05 and the synergy score was greater than zero, but the mean AUC for the combination was […] than the lowest mean AUC among the two single agent treatments, then the combination was sub-additive. If the P-value is below 0.05 and if the synergy score was greater than zero, and the mean AUC for the combination was greater than the mean AUC for at least one of the single agent treatments, then the combination was antagonistic. […] In the combination treatment groups alisertib was administered first, followed immediately by the administration of carboplatin. One group served as a vehicle-treated control group (Group 1) receiving PO treatment with the vehicle used for administration of alisertib in treatment groups on a QDx21 schedule.
# [2] = test system: NCI-H82 small cell lung tumor; experiment: NCI-H82 xenograft model study 2: alisertib and cisplatin
# Text: NCI-H82 2: A thirty-to-forty mg fragment of NCI-H82 small cell lung tumor, propagated in an in vivo passage, was implanted SC in the area of the right flank of female Athymic NCr nu/nu mice (age 5 weeks, Charles River Laboratories, Wilmington, MA) using a 12-gauge trocar needle. Tumors were allowed to reach 100-245 mm^3 in volume before the start of treatment. A sufficient number of mice were implanted so that tumors in a volume range as narrow as possible were selected for the trial on the day of treatment initiation (day 14 after tumor implantation, designated as SD, or Day 0). Those animals selected with tumors in the proper volume range were randomized into 9 treatment and control groups (n=10/group) so that the median tumor volumes on the first day of treatment were as close as possible (196-198 mm^3).
# (§1) An 8 mg/mL suspension of alisertib was formulated weekly by adding a half volume of 20% HPBCD in water for injection (WFI) to the alisertib powder, then mixing by vortexing, and sonicating for one minute. The suspension was diluted to 4 mg/mL with 2% sodium bicarbonate (NaHCO3) in WFI. The final composition of the alisertib vehicle was 10% HPBCD/1% NaHCO3 in WFI. The 4 mg/mL solution was diluted to 2 mg/mL with complete vehicle for the lower dose. The alisertib dosing formulations were stored in brown bottles at room temperature during the dosing period. All alisertib injections were administered on the basis of exact animal body weight on each day of treatment, using an injection volume of 0.05 mL/10 g body weight.
# (§2) A 1 mg/mL stock solution of cisplatin (Cisplatin Injection, PCH […]) was diluted each day of treatment with saline to 0.8 and 0.4 mg/mL. Cisplatin injections were administered on the basis of exact animal body weight on each day of treatment, using an injection volume of 0.05 mL/10 g body weight.
# (§3) Tumors were measured twice weekly using vernier calipers. Tumor volumes were calculated using standard procedures V=W^2×L/2). When mean tumor volumes reached approximately 206-219 mm^3 for NCI-H82 1, 196-198 mm^3 for NCI-H82 2, or 169-174 mm^3 for NCI-H69, mice were randomized into groups of n=10/arm as described in the tables below, and injected with vehicle, alisertib or agents (cisplatin, or carboplatin), or the combination of alisertib plus one of the agents, at various doses and schedules as described below in Tables 1a, 2a and 3a. Tumor size and body weight were measured approximately twice a week for the duration of the study. […] Tumor growth continued to be monitored after the dosing period in some studies. […]
# (§4) Measurements from the day of treatment initiation to Day 20 or Day 21 following treatment initiation are analyzed as specified in Tables below. […]
# [3] = test system: NCI-H69 small cell lung tumor; experiment: NCI-H69 xenograft model: alisertib and cisplatin
# Text: NCI-H69: A thirty-to-forty mg fragment of NCI-H69 small cell lung tumor, propagated in an in vivo passage, was implanted SC in the area of the right flank of female Athymic NCr nu/nu nice (age 6 weeks, Charles River Laboratories, Frederick, MD) using a 12-gauge trocar needle. Tumors were allowed to reach 100-245 mm^3 in volume before the start of treatment. A sufficient number of mice were implanted so that tumors in a volume range as narrow as possible were selected for the trial on the day of treatment initiation (day 24 after tumor implantation, designated as SD, or Day 0). Those animals selected with tumors in the proper volume range were randomized into 9 treatment and control groups (n=10/group) so that the mean tumor volumes on the first day of treatment were as close as possible (169-174 mm^3).
# as §1, §2, §3, §4
structure (smiles),measurement,setting,value
"COc1cc(Nc2ncc3c(n2)-c2ccc(Cl)cc2C(c2c(F)cccc2OC)=NC3)ccc1C(=O)O [Alisertib, 4-{[9-chloro-7-(2-fluoro-6-methoxyphenyl)-5H-pyrimido[5,4-d][2]benzazepin-2-yl]amino}-2-methoxybenzoic acid]",Tumor Volume Day 21,[1]; 10 mg/kg Alisertib QDx21 PO,1701 mm^3
same,Tumor Volume Day 21,[1]; 20 mg/kg Alisertib QDx21 PO,1640 mm^3
same,Tumor Volume Day 20,[2]; 10 mg/kg Alisertib QDx21 PO,1578 mm^3
same,Tumor Volume Day 20,[2]; 20 mg/kg Alisertib QDx21 PO,1461 mm^3
same,Tumor Volume Day 20,[3]; 10 mg/kg Alisertib QDx21 PO,374 mm^3
same,Tumor Volume Day 20,[3]; 20 mg/kg Alisertib QDx21 PO,149 mm^3
"N.N.O=C([O-])C1(C(=O)[O-])CCC1.[Pt+2] [Carboplatin, carboplatin]",Tumor Volume Day 21,[1]; 25 mg/kg Carboplatin Q7Dx3 IP,1373 mm^3
same,Tumor Volume Day 21,[1]; 75 mg/kg Carboplatin Q7Dx3 IP,965 mm^3
"N.N.[Cl][Pt][Cl] [Cisplatin, cisplatin]",Tumor Volume Day 20,[2]; 2 mg/kg Cisplatin Q4Dx3 IP,1429 mm^3
same,Tumor Volume Day 20,[2]; 4 mg/kg Cisplatin Q4Dx3 IP,1270 mm^3
same,Tumor Volume Day 20,[3]; 2 mg/kg Cisplatin Q4Dx3 IP,604 mm^3
same,Tumor Volume Day 20,[3]; 4 mg/kg Cisplatin Q4Dx3 IP,300 mm^3
